Measurements published in patent EP4707280A1, “1,4-CINEOLE DERIVATIVE AND INTERMEDIATE THEREOF, HERBICIDE CONTAINING SAID DERIVATIVE AS ACTIVE INGREDIENT, METHOD FOR USING HERBICIDE, AND METHOD FOR PREPARING AGROCHEMICAL COMPOSITION” (HOKKO CHEMICAL INDUSTRY CO., LTD., priority 2023, dated 2024).

Tests used:
Format in all cases: in vivo
[1] = tested on: Echinochloa crus-galli var. formosensis; test: Test Example 2: herbicidal effect test by application during growth period of paddy rice; details: 120 g per 10 ares, applied seven days after sowing, flooded pots, 14 days after application; for inhibition at 1200 g/ha: Echinochloa crus-galli, read-out: weed inhibition rate
In short: (§1)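 Flooded paddy pot test, greenhouse. Seeds 30/species, 0–1 cm depth, water ~3 cm. EC diluted in water, dropper-applied 7 d post-sowing at 120 g a.i./10 a. Inhibition rate (%) read 14 d after treatment; n=2.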

Echinochloa crus-galli [2] = test: Test Example 3: herbicidal effect test by soil application in upland field; details: 120 g per 10 ares, sprayed one day after sowing, 14 days after application; for inhibition at 1200 g/ha: Echinochloa crus-galli, read-out: weed inhibition rate
In short: (§2)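 Pre-emergence test: seeds mixed into top 1 cm of alluvial loam upland soil in pots; emulsifiable concentrate diluted in water sprayed on soil one day after sowing at 100 L/10 a, 120 g a.i./10 a. Weed inhibition rate (%) scored at 14 days, in duplicate.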

Digitaria ciliaris [3] = test: as above; details: 120 g per 10 ares, sprayed one day after sowing, 14 days after application; for inhibition at 1200 g/ha: Digitaria ciliaris, read-out: weed inhibition rate
In short: as §2

[4] = tested on: Echinochloa crus-galli var. formosensis; test: Test Example 5: herbicidal effect test by soil application in paddy rice (low dose); details: Echinochloa crus-galli, soil, 336 h; 7.5 g per 10 ares; applied immediately after sowing, flooded pots; 14 days after application; read-out: weed inhibition rate
Description: (§3) The present test was conducted in duplicate for each chemical concentration group, and the weed inhibition rate (%) was determined 14 days after chemical application using the following formula (Math. 1). [formula]
Wagner pots with an area of […] were filled with paddy soil, followed by addition of water and incorporation of chemical fertilizer (N:P:K = 16:16:16), after which puddling was performed. After that, seeds of Echinochloa crus-galli var. formosensis, broad-leaved weeds (Monochoria vaginalis), and Scirpus juncoides were sown at a depth of 0 cm to 1 cm, 30 seeds each. Immediately after sowing, the pots were flooded and a water depth of approximately 3 cm was maintained. Subsequent management was conducted in a glass greenhouse. Immediately thereafter, an emulsifiable concentrate prepared according to Formulation Example 5 using the compound shown below was diluted with water, and a specified amount of the diluted solution was applied by dropper. The amount of the active ingredient to be applied was equivalent to 7.5 g per 10 ares. […]

Digitaria ciliaris [5] = test: Test Example 4: herbicidal effect test by stem and leaf treatment in upland field; details: 120 g per 10 ares, sprayed seven days after sowing, upland soil, 14 days after application; for inhibition at 1200 g/ha: Digitaria ciliaris, read-out: weed inhibition rate
[6] = tested on: Echinochloa crus-galli var. formosensis; test: Test Example 1: herbicidal effect test by soil application in paddy rice; details: 120 g active ingredient per 10 ares, applied immediately after sowing, flooded pots, 14 days after application; for pest or weed control at 1200 g/ha: Echinochloa crus-galli, soil, 336 h, read-out: weed inhibition rate
In short: (§4)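 Paddy soil in Wagner pots (1/10,000 acre), fertilized and puddled; 30 seeds per species sown at 0–1 cm, flooded to ~3 cm, greenhouse. Water-diluted emulsifiable concentrate dropped onto flooded pots right after sowing at 120 g active ingredient per 10 ares.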

Echinochloa crus-galli [7] = test: Test Example 4: herbicidal effect test by stem and leaf treatment in upland field; details: 120 g per 10 ares, sprayed seven days after sowing, upland soil, 14 days after application; for inhibition at 1200 g/ha: Echinochloa crus-galli, read-out: weed inhibition rate
Echinochloa crus-galli [8] = test: Test Example 8: herbicidal effect test by stem and leaf treatment in upland field (low dose); details: Echinochloa crus-galli; 7.5 g per 10 ares; sprayed seven days after sowing, upland soil; 14 days after application; read-out: weed inhibition rate
Description: as §3
(§5) Pots with an area of 36 cm^2 were filled with upland soil (alluvial loam), twenty seeds each of weeds of Digitaria ciliaris, and Echinochloa crus-galli were uniformly mixed with the top 1 cm layer of soil and the surface was lightly pressed down. Seven days after sowing, an emulsifiable concentrate prepared according to Formulation Example 5 using the compound shown below was diluted with water, and the diluted solution was sprayed onto the soil surface at a rate of 100 liters per 10 ares. The amount of the active ingredient to be applied was equivalent to 7.5 g per 10 ares. Fourteen days after chemical application, the herbicidal effect was evaluated according to the same criteria as in Test Example 1.

Scirpus juncoides [9] = test: Test Example 2: herbicidal effect test by application during growth period of paddy rice; details: Schoenoplectiella juncoides; 120 g per 10 ares; applied seven days after sowing, flooded pots; 14 days after application; read-out: weed inhibition rate
In short: as §1

Scirpus juncoides [10] = test: Test Example 1: herbicidal effect test by soil application in paddy rice; details: Schoenoplectiella juncoides, soil, 336 h; 120 g active ingredient per 10 ares; applied immediately after sowing, flooded pots; 14 days after application; read-out: weed inhibition rate
In short: as §4

[11] = tested on: Echinochloa crus-galli var. formosensis; test: Test Example 6: herbicidal effect test by application during growth period of paddy rice (low dose); details: Echinochloa crus-galli; 7.5 g per 10 ares; applied seven days after sowing, flooded pots; 14 days after application; read-out: weed inhibition rate
Description: as §3
Wagner pots with an area of […] were filled with paddy soil, followed by addition of water and incorporation of chemical fertilizer (N:P:K = 16:16:16), after which puddling was performed. After that, seeds of Echinochloa crus-galli var. formosensis, broad-leaved weeds (Monochoria vaginalis), and Scirpus juncoides were sown at a depth of 0 cm to 1 cm, 30 seeds each. Immediately after sowing, the pots were flooded and a water depth of approximately 3 cm was maintained. Subsequent management was conducted in a glass greenhouse. Seven days after sowing, an emulsifiable concentrate prepared according to Formulation Example 5 using the compound shown below was diluted with water, and a specified amount of the diluted solution was applied by dropper. The amount of the active ingredient to be applied was equivalent to 7.5 g per 10 ares. The test was conducted in duplicate for each chemical concentration group, and the herbicidal effect was evaluated 14 days after chemical application using the same criteria as in Test Example 1.

Digitaria ciliaris [12] = test: Test Example 8: herbicidal effect test by stem and leaf treatment in upland field (low dose); details: 7.5 g per 10 ares, sprayed seven days after sowing, upland soil, 14 days after application; for inhibition at 75 g/ha: Digitaria ciliaris, read-out: weed inhibition rate
Description: as §3, §5

Cc1cccc(C)c1CO[C@@H]1C[C@]2(C(C)C)O[C@@]1(C)C[C@@H]2Br [1-17, (1S,2R,4R,5S)-5-bromo-2-[(2,6-dimethylphenyl)methoxy]-1-methyl-4-isopropyl-7-oxabicyclo[2.2.1]heptane]
≥ 80%: inhibition at 1200 g/ha [1] | inhibition at 1200 g/ha (Echinochloa crus-galli [2]) | inhibition at 1200 g/ha (Digitaria ciliaris [3]) | inhibition at 75 g/ha [4] | inhibition at 1200 g/ha (Digitaria ciliaris [5]) | pest or weed control at 1200 g/ha [6] | inhibition at 1200 g/ha (Echinochloa crus-galli [7]) | inhibition at 75 g/ha (Echinochloa crus-galli [8])

CC#CCO[C@@H]1C[C@]2(C(C)C)O[C@@]1(C)C[C@@H]2Br [1-674, (1S,2R,4R,5S)-5-bromo-2-but-2-ynoxy-1-methyl-4-isopropyl-7-oxabicyclo[2.2.1]heptane]
≥ 80%: inhibition at 1200 g/ha (Scirpus juncoides [9]) | inhibition at 1200 g/ha [1] | inhibition at 1200 g/ha (Echinochloa crus-galli [2]) | inhibition at 1200 g/ha (Digitaria ciliaris [3]) | inhibition at 75 g/ha [4] | inhibition at 1200 g/ha (Digitaria ciliaris [5]) | pest or weed control at 1200 g/ha (Scirpus juncoides [10]) | pest or weed control at 1200 g/ha [6] | inhibition at 1200 g/ha (Echinochloa crus-galli [7]) | inhibition at 75 g/ha [11]

COc1ccc(CO[C@@H]2C[C@]3(C(C)C)O[C@@]2(C)C[C@@H]3Br)cc1 [1-686, (1S,2R,4R,5S)-5-bromo-2-[(4-methoxyphenyl)methoxy]-1-methyl-4-isopropyl-7-oxabicyclo[2.2.1]heptane]
≥ 80%: inhibition at 1200 g/ha (Digitaria ciliaris [5]) | inhibition at 1200 g/ha (Echinochloa crus-galli [7]) | inhibition at 75 g/ha (Echinochloa crus-galli [8]) | inhibition at 75 g/ha (Digitaria ciliaris [12])

CC(C)[C@]12C[C@@H](OCc3ccccc3C(F)(F)F)[C@](C)(C[C@@H]1Br)O2 [1-700, (1S,2R,4R,5S)-5-bromo-l-methyl-4-isopropyl-2-[[2-(trifluoromethyl)phenyl]methoxy]-7-oxabicyclo[2.2.1]heptane]
≥ 80%: weed inhibition rate [1] | weed inhibition rate (Echinochloa crus-galli [2]) | weed inhibition rate (Digitaria ciliaris [3]) | weed inhibition rate (Digitaria ciliaris [5]) | weed inhibition rate [6] | weed inhibition rate (Echinochloa crus-galli [7]) | weed inhibition rate (Digitaria ciliaris [12])

CC(C)[C@]12C[C@@H](OCc3ccccc3C(=O)O)[C@](C)(C[C@@H]1Br)O2 [1-706, 2-[[(1S,2R,4R,5S)-5-bromo-1-methyl-4-isopropyl-7-oxabicyclo[2.2.1]heptan-2-yl]oxymethyl]benzoic acid]
≥ 80%: inhibition at 1200 g/ha (Digitaria ciliaris [5]) | inhibition at 1200 g/ha (Echinochloa crus-galli [7]) | inhibition at 75 g/ha (Echinochloa crus-galli [8]) | inhibition at 75 g/ha (Digitaria ciliaris [12])

COC(=O)c1ccccc1CO[C@@H]1C[C@]2(C(C)C)O[C@@]1(C)C[C@@H]2Br [1-709, methyl 2-[[(1S,2R,4R,5S)-5-bromo-1-methyl-4-isopropyl-7-oxabicyclo[2.2.1]heptan-2-yl]oxymethyl]benzoate]
≥ 80%: inhibition at 1200 g/ha (Digitaria ciliaris [5]) | inhibition at 1200 g/ha (Echinochloa crus-galli [7]) | inhibition at 75 g/ha (Echinochloa crus-galli [8]) | inhibition at 75 g/ha (Digitaria ciliaris [12])

CC(C)[C@]12C[C@@H](OCC3CCCCC3)[C@](C)(C[C@@H]1I)O2 [1-736, (1R,2S,4S,5R)-5-(cyclohexylmethoxy)-2-iodo-1-isopropyl-4-methyl-7-oxabicyclo[2.2.1]heptane]
≥ 80%: inhibition at 1200 g/ha (Scirpus juncoides [9]) | inhibition at 1200 g/ha [1] | inhibition at 1200 g/ha (Echinochloa crus-galli [2]) | inhibition at 1200 g/ha (Digitaria ciliaris [3]) | inhibition at 75 g/ha [4] | inhibition at 1200 g/ha (Digitaria ciliaris [5]) | pest or weed control at 1200 g/ha (Scirpus juncoides [10]) | pest or weed control at 1200 g/ha [6] | inhibition at 1200 g/ha (Echinochloa crus-galli [7]) | inhibition at 75 g/ha [11]

CCC[C@]1(O)C[C@]2(C)O[C@@]1(C(C)C)C[C@H]2OCc1ccccc1F [1-934, (1R,2S,4S,5R)-5-[(2-fluorophenyl)methoxy]-1-isopropyl-4-methyl-2-propyl-7-oxabicyclo[2.2.1]heptan-2-ol]
≥ 80%: inhibition at 1200 g/ha [1] | inhibition at 1200 g/ha (Digitaria ciliaris [5]) | inhibition at 1200 g/ha (Echinochloa crus-galli [7]) | inhibition at 75 g/ha (Echinochloa crus-galli [8])

CC(C)[C@@]12C[C@H](OCc3ccccc3F)[C@@](C)(C[C@H]1Br)O2 [1-1028, (1R,2S,4S,5R)-5-bromo-2-[(2-fluorophenyl)methoxy]-1-methyl-4-isopropyl-7-oxabicyclo[2.2.1]heptane]
≥ 80%: inhibition at 1200 g/ha (Digitaria ciliaris [5]) | inhibition at 1200 g/ha (Echinochloa crus-galli [7]) | inhibition at 75 g/ha (Echinochloa crus-galli [8])

CC(C)[C@@]12C[C@H](OCc3ccccc3F)[C@@](C)(C[C@H]1C)O2 [1-1221, (1R,2S,4S,5R)-2-[(2-fluorophenyl)methoxy]-1,5-dimethyl-4-isopropyl-7-oxabicyclo[2.2.1]heptane]
≥ 80%: inhibition at 1200 g/ha (Digitaria ciliaris [5]) | inhibition at 75 g/ha (Digitaria ciliaris [12])

CC(C)[C@@]12C[C@H](OCc3ccccc3F)[C@@](C)(C[C@@H]1C)O2 [1-1222, (1R,2S,4S,5S)-2-[(2-fluorophenyl)methoxy]-1,5-dimethyl-4-isopropyl-7-oxabicyclo[2.2.1]heptane]
≥ 80%: inhibition at 1200 g/ha (Echinochloa crus-galli [7]) | inhibition at 75 g/ha (Echinochloa crus-galli [8])

CC(C)[C@@]12C=C[C@@](C)(O1)[C@@H](OCc1ccccc1F)C2 [3-750, (1S,4R,5S)-5-[(2-fluorophenyl)methoxy]-4-methyl-1-isopropyl-7-oxabicyclo[2.2.1]hept-2-ene]
≥ 80%: inhibition at 1200 g/ha (Scirpus juncoides [9]) | inhibition at 1200 g/ha [1] | inhibition at 1200 g/ha (Echinochloa crus-galli [2]) | inhibition at 1200 g/ha (Digitaria ciliaris [3]) | inhibition at 1200 g/ha (Digitaria ciliaris [5]) | pest or weed control at 1200 g/ha (Scirpus juncoides [10]) | pest or weed control at 1200 g/ha [6] | inhibition at 1200 g/ha (Echinochloa crus-galli [7])
